From publication PMC4573583 (ACS chemical biology, 2015)
Entries after “also recorded” stand apart in the source; their conditions may differ.

Columns and labels:
[1] = aqueous solubility; type: physicochemical; settings: in words
[2] = tested on: BamL; settings: cited from earlier work
[3] = tested on: other members of the genus Bacillus; settings: cited from earlier work
[4] = tested on: other representative members of the genus Bacillus; type: cell-based
[5] = tested on: B. anthracis Sterne; type: cell-based, Bacillus anthracis; settings: 4 μM, 30 min, mid-exponential phase cells, 22 °C
[6] = tested on: MRSA (S. aureus NRS384); assay: cell density after 12 h treatment, MRSA; type: cell-based, Staphylococcus aureus; settings: 24 μM, duplicate, #P<0.01 vs DMSO-treated MRSA
[7] = tested on: Bacillus subtilis 168; type: cell-based
[8] = tested on: Escherichia coli DH5a; type: cell-based
[9] = tested on: Bacillus anthracis Sterne; settings: microbroth dilution method, ref [6], [10]; cited from earlier work
[10] = tested on: B. anthracis Sterne; type: cell-based, Bacillus anthracis; settings: 24 μM, 12 h treatment, duplicate, *P<0.01 vs DMSO-treated

RCTCTT [Arg-Az5]
aqueous solubility [1]: moderate solubility

NC(=O)[C@@H](N)CCCN=C(N)N [Arg amide]
acceptance as substrate [2]: poorer substrate that is turned over by BamL but only under single-turnover conditions; also recorded: only so under near-single turnover conditions

plantazolicin [PZN]
growth inhibitory activity [3]: weak growth inhibitory activity
activity against other Bacillus (microbroth dilution) [4]: > 48 µM
cell lysis [5]: induces major cell lysis above the MIC; also recorded: shows cell lysis
antibiotic activity (cell density, 595 nm) [6]: not PZN displays antibiotic activity against MRSA
minimum inhibitory concentration (MIC) [7]: >48 µM
minimum inhibitory concentration (MIC) [8]: >48 µM
susceptibility to purified PZN [9]: the only organism susceptible to the action of purified PZN to date has been Bacillus anthracis
bactericidal effect (cell density, 595 nm) [10]: bactericidal

N=C(N)NCCC[C@H](N)C(=O)O [Arg]
acceptance as substrate [2]: not accepted as a substrate
